Measured values published in patent publication US9951066B2, “Compositions, uses and methods for making them” (Pimera, Inc., priority 2014, dated 2018).
Where two headings read alike, the source gives them in different places. Values belong to the compound of their own block, whether it stands above or below them.

Tests used:
Type in all cases: cell-based
A2058 = experiment: Alamar Blue cell viability assay, A2058; details: Homo sapiens, cell proliferation inhibition, 96 h incubation, read-out: Pharmaceutical activity IC50 A2058
Description: (§1) Inhibitory activity on cell proliferation of representative compounds of the invention was determined using an Alamar Blue cell viability assay as described hereafter.
(§2) 3000 cancer cells in 100 uL of cell culture media were plated in each well of a 96-well clear bottom, black wall cell culture-pretreated plate.
(§3) The next day compounds are serially diluted (3-fold in cell culture media) across a 96-well polypropylene mother plate from row A to row F, to yield 6 concentrations (10 uM, 3.3 uM, 1.1 uM, 370 nM, 124 nM and 41 nM) for each test compound. Rows G and H contain only DMSO.
(§4) Once titrations are made, the media in plates with cells were disposed and 100 μL of drug dilutions are transferred to plates with cells. After a ninety six-hour incubation at 37° C., 10 uL of resazurin solution from Alamar Blue Cell Viability kit (Invitrogen, Carlsbad, Calif.) was added to the media and cells were incubated at 37° C. for three more hours. At the end of this incubation the production of resofurin was measured using Spectrmax M2 microplate reader (Molecular Devices, Sunnyvale, Calif.)

A375 cell line = experiment: Alamar Blue cell viability assay, A375; details: Homo sapiens
Description: as §1, §2, §3, §4

DLD-1 = experiment: Alamar Blue cell viability assay, DLD-1; details: Homo sapiens, 96 h incubation, read-out: cell proliferation inhibition DLD-1
Description: as §1, §2, §3, §4

PC-3 = experiment: Alamar Blue cell viability assay, PC-3; details: Homo sapiens, 96 h incubation, read-out: cell proliferation inhibition PC-3
Description: as §1, §2, §3, §4

MCF7 = experiment: Alamar Blue cell viability assay, MCF7; details: Homo sapiens, 96 h incubation, read-out: cell proliferation inhibition MCF7
Description: as §1, §2, §3, §4

4T1 = experiment: Alamar Blue cell viability assay, 4T1; details: Mus musculus, 96 h incubation, read-out: cell proliferation inhibition 4T1
Description: as §1, §2, §3, §4

CT26 = experiment: Alamar Blue cell viability assay, CT26; details: Mus musculus, 96 h incubation, read-out: cell proliferation inhibition CT26
Description: as §1, §2, §3, §4

HCT-116 = experiment: Alamar Blue cell viability assay, HCT-116; details: Homo sapiens, 96 h incubation, read-out: cell proliferation inhibition HCT-116
Description: as §1, §2, §3, §4

NOMO-1 = experiment: Alamar Blue cell viability assay, NOMO-1; details: Homo sapiens, 96 h incubation, read-out: cell proliferation inhibition NOMO-1
Description: as §1, §2, §3, §4

KG-1 = experiment: Alamar Blue cell viability assay, KG-1; details: Homo sapiens, 96 h incubation, read-out: cell proliferation inhibition KG-1
Description: as §1, §2, §3, §4

B16-F10 = experiment: Alamar Blue cell viability assay, B16-F10; details: Mus musculus, 96 h incubation, read-out: cell proliferation inhibition B16-F10
Description: as §1, §2, §3, §4

Hep G2 = experiment: Alamar Blue cell viability assay, Hep G2; details: Homo sapiens, HepG2, 96 h incubation, read-out: cell proliferation inhibition Hep G2
Description: as §1, §2, §3, §4

LnCAP = experiment: Alamar Blue cell viability assay, LnCAP; details: Homo sapiens, 96 h incubation, read-out: cell proliferation inhibition LnCAP
Description: as §1, §2, §3, §4

MDA-MB-231 = experiment: Alamar Blue cell viability assay, MDA-MB-231; details: Homo sapiens, 96 h incubation, read-out: cell proliferation inhibition MDA-MB-231
Description: as §1, §2, §3, §4

ML-2 = experiment: Alamar Blue cell viability assay, ML-2; details: Homo sapiens, 96 h incubation, read-out: cell proliferation inhibition ML-2
Description: as §1, §2, §3, §4

SKM_1_AV = experiment: Alamar Blue cell viability assay, SKM_1_AV; details: 96 h incubation, read-out: cell proliferation inhibition SKM_1_AV
Description: as §1, §2, §3, §4

SKM-1 = experiment: Alamar Blue cell viability assay, SKM-1; details: Homo sapiens, 96 h incubation, read-out: cell proliferation inhibition SKM-1
Description: as §1, §2, §3, §4

NB4-Av = experiment: Alamar Blue cell viability assay, NB4-Av; details: 96 h incubation, read-out: cell proliferation inhibition NB4-Av
Description: as §1, §2, §3, §4

HT-1080 = experiment: Alamar Blue cell viability assay, HT-1080; details: Homo sapiens, 96 h incubation, read-out: cell proliferation inhibition HT-1080
Description: as §1, §2, §3, §4

NCI-H1299 = experiment: Alamar Blue cell viability assay, NCI-H1299; details: Homo sapiens, 96 h incubation, read-out: cell proliferation inhibition NCI-H1299
Description: as §1, §2, §3, §4

AGS = experiment: Alamar Blue cell viability assay, AGS; details: Homo sapiens, 96 h incubation, read-out: cell proliferation inhibition AGS
Description: as §1, §2, §3, §4

A549 = experiment: Alamar Blue cell viability assay, A549; details: Homo sapiens, 96 h incubation, read-out: cell proliferation inhibition A549
Description: as §1, §2, §3, §4

[1] = A-375, cell proliferation inhibition, Alamar Blue, 96 h incubation, read-out: Pharmaceutical activity IC50 A375
[2] = A-375, 96 h, read-out: Pharmaceutical activity in A375 cell line IC50
[3] = A-375, Table 4, cell proliferation inhibition, Alamar Blue, 96 h incubation, read-out: Pharmaceutical activity in A375 cell line IC50

Structure (SMILES): Cc1cnc(CNC(=O)c2cc3ccc(N4CCCN(C)CC4)nc3n3c2nc2ccccc23)cn1 [Compound 2E, 2-(4-methyl-[1,4]diazepan-1-yl)-1,7,11b-triazabenzo[c]fluorene-6-carboxylic acid (5-methylpyrazin-2-ylmethyl)-amide]
IC50 (A2058): 5 to 10 µM
IC50 (A375 cell line; [1]): < 1 µM

Structure (SMILES): CC(C)NC(=O)c1cc2ccc(N3CCCNCC3)nc2n2c1nc1ccccc12 [Compound 9B, 2-[1,4]Diazepan-1-yl-1,7,11b-triaza-benzo[c]fluorene-6-carboxylic acid isopropylamide]
IC50 (A375 cell line; [2]): 1 to 5 µM

Structure (SMILES): O=C(NCCN1CCCC1)c1cc2cc(F)cnc2n2c1nc1ccccc12 [Compound 7I, 3-Fluoro-1,7,11b-triaza-benzo[c]fluorene-6-carboxylic acid (2-pyrrolidin-1-yl-ethyl)-amide]
IC50 (A375 cell line; [3]): 1 to 5 µM

Structure (SMILES): CN1CCCN(c2ccc3cc(C(=O)NCC4(C)COC4)c4nc5ccccc5n4c3n2)CC1 [Compound 2F, 2-(4-Methyl-[1,4]diazepan-1-yl)-1,7,11b-triazabenzo[c]fluorene-6-carboxylic acid (3-methyloxetan-3-ylmethyl)-amide]
IC50 (A375 cell line; [1]): 1 to 5 µM

Structure (SMILES): O=C(NCCN1CCOCC1)c1cc2cc(F)cnc2n2c1nc1ccccc12 [Compound 7G, 3-Fluoro-1,7,11b-triaza-benzo[c]fluorene-6-carboxylic acid (2-morpholin-4-yl-ethyl)-amide]
IC50 (A375 cell line; [3]): > 10 µM

Structure (SMILES): COCCNc1ccc2cc(C#N)c3nc4ccccc4n3c2n1 [Compound 3I, 2-(2-Methoxy-ethylamino)-1,7,11b-triaza-benzo[c]fluorene-6-carbonitrile]
IC50 (A375 cell line; [3]): 1 to 5 µM

Structure (SMILES): CNC(=O)c1cc2ccc(N3CCC[N+](C)(C)CC3)nc2n2c1nc1ccccc12 [Compound 6A, 1,1-Dimethyl-4-(6-methylcarbamoyl-1,7,11b-triaza-benzo[c]fluoren-2-yl)-[1,4]diazepan-1-ium; iodide]
IC50 (A375 cell line; [3]): 5 to 10 µM

Structure (SMILES): CC(C)NC(=O)c1cc2ccc(N3CCN(C)CC3)nc2n2c1nc1ccccc12 [Compound 5D]
IC50 (A375 cell line; [2]): 5 to 10 µM

Structure (SMILES): C[C@@H]1CN(c2ccc3cc(C#N)c4nc5ccccc5n4c3n2)C[C@H](C)N1 [Compound 3A, 2-((3S,5R)-3,5-dimethylpiperazin-1-yl)-1,7,11b-triaza-benzo[c]fluorene-6-carbonitrile]
IC50 (DLD-1): < 1 µM
IC50 (PC-3): 1 to 5 µM
IC50 (MCF7): 5 to 10 µM
IC50 (4T1): 5 to 10 µM
IC50 (CT26): 5 to 10 µM
IC50 (HCT-116): < 1 µM
IC50 (NOMO-1): < 1 µM
IC50 (KG-1): < 1 µM
IC50 (B16-F10): 1 to 5 µM
IC50 (Hep G2): < 1 µM
IC50 (LnCAP): 5 to 10 µM
IC50 (MDA-MB-231): < 1 µM
IC50 (ML-2): < 1 µM
IC50 (A375 cell line; [1]): < 1 µM
IC50 (SKM_1_AV): < 1 µM
IC50 (SKM-1): < 1 µM
IC50 (NB4-Av): < 1 µM
IC50 (HT-1080): 5 to 10 µM
IC50 (NCI-H1299): 5 to 10 µM
IC50 (AGS): < 1 µM
IC50 (A549): 5 to 10 µM

Structure (SMILES): CN1CCN(c2ccc3cc(C#N)c4nc5ccccc5n4c3n2)CC1 [Compound 3H, 2-(4-Methyl-piperazin-1-yl)-1,7,11b-triaza-benzo[c]fluorene-6-carbonitrile]
IC50 (A375 cell line; [3]): < 1 µM

Structure (SMILES): CCN1CCN(c2ccc3cc(C#N)c4nc5ccccc5n4c3n2)CC1 [Compound 3B, 2-(4-ethylpiperazin-1-yl)-1,7,11b-triaza-benzo[c]fluorene-6-carbonitrile]
IC50 (Hep G2): < 1 µM
IC50 (A375 cell line; [1]): < 1 µM
IC50 (SKM-1): < 1 µM

Structure (SMILES): CN1CCCN(c2ccc3cc(C#N)c4nc5ccccc5n4c3n2)CC1 [Compound 3C, 2-(4-Methyl-[1,4]diazepan-1-yl)-1,7,11b-triaza-benzo[c]fluorene-6-carbonitrile]
IC50 (A375 cell line; [3]): < 1 µM

Structure (SMILES): CN(C)CCNC(=O)c1cc2cc(F)cnc2n2c1nc1ccccc12 [Compound 7F, 3-Fluoro-1,7,11b-triaza-benzo[c]fluorene-6-carboxylic acid (2-dimethylamino-ethyl)-amide]
IC50 (A375 cell line; [3]): 1 to 5 µM

Structure (SMILES): CNNC(=O)c1cc2ccc(N3CCCN(C)CC3)nc2n2c1nc1ccccc12 [Compound 4D, 2-(4-Methyl-[1,4]diazepan-1-yl)-1,7,11b-triaza-benzo[c]fluorene-6-carboxylic acid N′-methyl-hydrazide]
IC50 (A375 cell line; [3]): < 1 µM

Structure (SMILES): CN1CCCN(c2ccc3cc(C(=O)Nc4nccs4)c4nc5ccccc5n4c3n2)CC1 [Compound 4A]
IC50 (A375 cell line; [3]): 5 to 10 µM

Structure (SMILES): CN1CCCN(c2ccc3cc(C(=O)NC4CC4)c4nc5ccccc5n4c3n2)CC1 [Compound 2C, 2-(4-methyl-[1,4]diazepan-1-yl)-1,7,11b-triazabenzo[c]fluorene-6-carboxylic acid cyclopropylamide]
IC50 (A375 cell line; [1]): 1 to 5 µM

Structure (SMILES): CONC(=O)c1cc2ccc(N3CCCN(C)CC3)nc2n2c1nc1ccccc12 [Compound 4F, 2-(4-Methyl-[1,4]diazepan-1-yl)-1,7,11b-triaza-benzo[c]fluorene-6-carboxylic acid methoxy-amide]
IC50 (A375 cell line; [3]): < 1 µM

The remaining lines, values ahead:

IC50 (A375 cell line; [3]): < 1 µM
Structure (SMILES): CN(C)CCNC(=O)c1cc2cnccc2n2c1nc1ccccc12 [Compound 13D, 3,7,11b-Triaza-benzo[c]fluorene-6-carboxylic acid (2-dimethylamino-ethyl)-amide]

IC50 (A375 cell line; [3]): < 1 µM
Structure (SMILES): CNC(=O)c1cc2ccc(NCCN(C)C)nc2n2c1nc1ccccc12 [Compound 12C, 2-(2-Dimethylamino-ethylamino)-1,7,11b-triaza-benzo[c]fluorene-6-carboxylic acid methylamide]

IC50 (A375 cell line; [3]): < 1 µM
Structure (SMILES): CNC(=O)c1cc2c(N3CCCN(C)CC3)ccnc2n2c1nc1ccccc12 [Compound 8B, 4-(4-Methyl-[1,4]diazepan-1-yl)-1,7,11b-triaza-benzo[c]fluorene-6-Carboxylic acid methylamide]

IC50 (A375 cell line; [3]): 1 to 5 µM
Structure (SMILES): CN(C)CCNc1ccc2cc(C(=O)NN)c3nc4ccccc4n3c2n1 [Compound 12B, 2-(2-Dimethylamino-ethylamino)-1,7,11b-triaza-benzo[c]fluorene-6-carboxylic acid hydrazide]

IC50 (A375 cell line; [3]): < 1 µM
Structure (SMILES): Cc1nnc(-c2cc3ccc(N4CCCN(C)CC4)nc3n3c2nc2ccccc23)o1 [Compound 10E, 2-(4-Methyl-[1,4]diazepan-1-yl)-6-(5-methyl-[1,3,4]oxadiazol-2-yl)-1,7,11b-triaza-benzo[c]fluorine]

IC50 (A375 cell line; [3]): 5 to 10 µM
Structure (SMILES): O=C(NCCN1CCOCC1)c1cc2cnccc2n2c1nc1ccccc12 [Compound 13F, 3,7,11b-Triaza-benzo[c]fluorene-6-carboxylic acid (2-morpholin-4-yl-ethyl)-amide]

IC50 (A375 cell line; [3]): 5 to 10 µM
Structure (SMILES): NNC(=O)c1cc2ccc(NCCN3CCOCC3)nc2n2c1nc1ccccc12 [Compound 11C, 2-(2-Morpholin-4-yl-ethylamino)-1,7,11b-triaza-benzo[c]fluorene-6-carboxylic acid hydrazide]

IC50 (A375 cell line; [3]): < 1 µM
Structure (SMILES): CNC(=O)c1cc2c(N3C[C@@H](C)N[C@@H](C)C3)ccnc2n2c1nc1ccccc12 [Compound 8D]
